Legend:
[1] = 101.33 kPa, Liquid, Vibrating tube method
[2] = xn = mol fraction of the nth substance listed; conditions: 101 kPa, Liquid, Vibrating tube method, x2 = 0

CC(C)(C)O [2-methylpropan-2-ol]
[1]
Conditions | mass density [kg/m3]
299.15 K | 779.48
303.15 K | 775.39
308.15 K | 770.15
313.15 K | 764.84
318.15 K | 759.46
323.15 K | 753.94
333.15 K | 742.7
348.15 K | 725.06

O [water] + CC(C)(C)O
[2]
Conditions | mass density [kg/m3]
274.15 K | 999.899
275.15 K | 999.94
276.15 K | 999.964
277.15 K | 999.972
278.15 K | 999.964
279.15 K | 999.94
280.15 K | 999.901
281.15 K | 999.848
282.15 K | 999.781
283.15 K | 999.699
323.15 K | 988.03
333.15 K | 983.191
348.15 K | 974.838

Source: the NIST ThermoML archive (doi:10.1016/j.jct.2010.10.018)
